The assay deals with P388 leukemia ip, CD2F1 mice, survival T/C. Nature of the assay: NCI In Vivo Anticancer Drug Screen. Data for tumor model P388 Leukemia (intraperitoneal) in CD2F1 (CDF1) mice. To be noted: endpoint: median survival time, higher = longer survival. The procedure, abridged:
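Mice carrying the transplanted tumor received test compound or vehicle. Survival was recorded in each group, and the value is the treated-group measurement divided by that of the vehicle-treated control group.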

Setting [1] is: dose: 50.0 mg/kg/injection, schedule: Q01DX009 (ip), vehicle: Klucel (hydroxypropylcellulose) (HPC).
Setting [2] is: dose: 100.0 mg/kg/injection, schedule: Q01DX009 (ip), vehicle: Klucel (hydroxypropylcellulose) (HPC).
Setting [3] is: dose: 200.0 mg/kg/injection, schedule: Q01DX009 (ip), vehicle: Klucel (hydroxypropylcellulose) (HPC).
The mark [4] stands for this setting: dose: 60.0 mg/kg/injection, schedule: Q01DX005 (ip), vehicle: saline with Tween-80.
[5] abbreviates: dose: 120.0 mg/kg/injection, schedule: Q01DX005 (ip), vehicle: saline with Tween-80.
[6] abbreviates: dose: 240.0 mg/kg/injection, schedule: Q01DX005 (ip), vehicle: saline with Tween-80.
The mark [7] stands for this setting: dose: 25.0 mg/kg/injection, schedule: Q04DX003 (ip), vehicle: Klucel (hydroxypropylcellulose) (HPC).
Where [8] appears, read: dose: 50.0 mg/kg/injection, schedule: Q04DX003 (ip), vehicle: Klucel (hydroxypropylcellulose) (HPC).
The mark [9] stands for this setting: dose: 50.0 mg/kg/injection, schedule: Q01DX005 (ip), vehicle: saline with Tween-80.
[10] abbreviates: dose: 60.0 mg/kg/injection, schedule: Q01DX005 (ip), vehicle: Klucel (hydroxypropylcellulose) (HPC).
The mark [11] stands for this setting: dose: 120.0 mg/kg/injection, schedule: Q01DX005 (ip), vehicle: Klucel (hydroxypropylcellulose) (HPC).
[12] abbreviates: dose: 50.0 mg/kg/injection, schedule: Q01DX005 (ip), vehicle: Klucel (hydroxypropylcellulose) (HPC).
The mark [13] stands for this setting: dose: 100.0 mg/kg/injection, schedule: Q01DX005 (ip), vehicle: Klucel (hydroxypropylcellulose) (HPC).
The mark [14] stands for this setting: dose: 200.0 mg/kg/injection, schedule: Q01DX005 (ip), vehicle: Klucel (hydroxypropylcellulose) (HPC).

Values joined by “and” are separate entries in the source; they are usually repeats but may differ in a detail not shown here. Equal values may be shown once. Inconclusive results and toxic doses are left out.

For `CN(C)C(=O)Nc1cccc2c(NC(=O)N(C)C)cccc12`, the T/C is 100 % of control and 103 % of control under setting [1]; 100 % of control (2×) and 93 % of control under setting [2]; 99 % of control and 87 % of control under setting [3]; 91 % of control (dose: 400.0 mg/kg/injection, schedule: Q01DX009 (ip), vehicle: Klucel (hydroxypropylcellulose) (HPC)).
In the case of `CCOC(=O)C1=C(O)C2(CC(C)=C(C)CS2=O)SC1=Nc1ccccc1` (centres undefined), the T/C reads like this: under setting [4], 96 % of control; under setting [5], 107 % of control; under setting [6], 104 % of control.
The like results for `CC1CC(=O)Nc2ncnc(N)c21` (centres undefined) were, in that order, 98 % of control, 106 % of control and 108 % of control.
In the case of `N#Cc1nc2c(nc1C#N)-c1ccccc1/C2=C1/C(=O)Cc2ccccc21`, the T/C was 98 % of control under setting [4], 99 % of control under setting [5] and 102 % of control under setting [6].
Take `CC(C)NS(=O)(=O)OCC(O)(CC(Cl)(Cl)Cl)c1ccccc1` (centres undefined): the T/C is 105 % of control (dose: 50.0 mg/kg/injection, schedule: Q01DX009 (ip), vehicle: saline with Tween-80); 109 % of control and 112 % of control (dose: 100.0 mg/kg/injection, schedule: Q01DX009 (ip), vehicle: saline with Tween-80); 105 % of control (dose: 200.0 mg/kg/injection, schedule: Q01DX009 (ip), vehicle: saline with Tween-80).
For the compound `C/C(=N\NC(=S)N(C)C)c1ncccn1`, the T/C is, setting by setting: (dose: 12.5 mg/kg/injection, schedule: Q04DX003 (ip), vehicle: Klucel (hydroxypropylcellulose) (HPC)) 107 % of control; under setting [7], 103 % of control; under setting [8], 105 % of control.
`COc1ccccc1NC(=O)Oc1ccc(C(C)(CCC(=O)O)c2ccc(OC(=O)Nc3ccccc3OC)cc2)cc1`: the T/C was 103 % of control (dose: 25.0 mg/kg/injection, schedule: Q01DX005 (ip), vehicle: saline with Tween-80); 101 % of control and 104 % of control and 97 % of control under setting [9]; 102 % of control and 105 % of control and 94 % of control (dose: 100.0 mg/kg/injection, schedule: Q01DX005 (ip), vehicle: saline with Tween-80); 90 % of control and 97 % of control (dose: 200.0 mg/kg/injection, schedule: Q01DX005 (ip), vehicle: saline with Tween-80); 102 % of control (dose: 400.0 mg/kg/injection, schedule: Q01DX005 (ip), vehicle: saline with Tween-80).
Take `O=NNc1ccc(-c2ccccc2)cn1`: the T/C (dose: 6.25 mg/kg/injection, schedule: Q01DX009 (ip), vehicle: saline) is 101 % of control; the T/C (dose: 25.0 mg/kg/injection, schedule: Q01DX009 (ip), vehicle: saline) was 181 % of control; the T/C (dose: 50.0 mg/kg/injection, schedule: Q01DX009 (ip), vehicle: saline) was 108 % of control.
Turning to `CCCCCCCCC(=O)C(=O)c1ccc(O)c(C)c1O`, the T/C runs as follows: under setting [1], 112 % of control; under setting [2], 109 % of control; under setting [3], 110 % of control.
Turning to `CC(C)=CCCC1(C)OC2(C)CCC1CC2` (centres undefined), the T/C is, setting by setting: (dose: 0.75 mg/kg/injection, schedule: Q01DX005 (ip), vehicle: Klucel (hydroxypropylcellulose) (HPC)) 95 % of control; (dose: 1.5 mg/kg/injection, schedule: Q01DX005 (ip), vehicle: Klucel (hydroxypropylcellulose) (HPC)) 95 % of control; (dose: 3.0 mg/kg/injection, schedule: Q01DX005 (ip), vehicle: Klucel (hydroxypropylcellulose) (HPC)) 99 % of control; (dose: 6.0 mg/kg/injection, schedule: Q01DX005 (ip), vehicle: Klucel (hydroxypropylcellulose) (HPC)) 96 % of control.
With `NC(=O)c1cncc(CCC(O)C(=O)O)c1` (centres undefined), the T/C was 96 % of control under setting [7]; 91 % of control under setting [8]; 100 % of control (dose: 100.0 mg/kg/injection, schedule: Q04DX003 (ip), vehicle: Klucel (hydroxypropylcellulose) (HPC)).
For `N#Cc1ccccc1N=Nc1ccccc1`, the T/C reads like this: (dose: 50.0 mg/kg/injection, schedule: Q01DX009 (ip), vehicle: saline + alcohol) 94 % of control; (dose: 100.0 mg/kg/injection, schedule: Q01DX009 (ip), vehicle: saline + alcohol) 95 % of control; (dose: 200.0 mg/kg/injection, schedule: Q01DX009 (ip), vehicle: saline + alcohol) 97 % of control.
As to `COc1ccc(C(c2cc3c(cc2O)OCO3)N2CCCC2)c(OC)c1` (centres undefined), the T/C is, setting by setting: under setting [10], 111 % of control; under setting [11], 118 % of control.
With `Cn1c(=O)c2c(ncn2CCNC(c2ccccc2)c2ccc(Br)cc2)n(C)c1=O` (centres undefined), the T/C runs as follows: (dose: 6.25 mg/kg/injection, schedule: Q01DX005 (ip), vehicle: alkali diluted with saline) 100 % of control; (dose: 12.5 mg/kg/injection, schedule: Q01DX005 (ip), vehicle: alkali diluted with saline) 96 % of control; (dose: 25.0 mg/kg/injection, schedule: Q01DX005 (ip), vehicle: alkali diluted with saline) 107 % of control.
As for `CSc1nc(N)c(NS(=O)(=O)c2ccccc2)c(=O)[nH]1`, the T/C is, setting by setting: under setting [10], 92 % of control; under setting [11], 91 % of control; (dose: 240.0 mg/kg/injection, schedule: Q01DX005 (ip), vehicle: Klucel (hydroxypropylcellulose) (HPC)) 90 % of control.
Consider `N#CC1(C#N)C(c2ccccc2)C1(C#N)C#N`, for which the T/C is, setting by setting: (dose: 6.25 mg/kg/injection, schedule: Q04DX003 (ip), vehicle: saline sonified) 115 % of control; (dose: 12.5 mg/kg/injection, schedule: Q04DX003 (ip), vehicle: saline sonified) 110 % of control; (dose: 16.5 mg/kg/injection, schedule: Q04DX003 (ip), vehicle: saline with Tween-80) 108 % of control; (dose: 25.0 mg/kg/injection, schedule: Q04DX003 (ip), vehicle: saline with Tween-80) 112 % of control.
For `O=[N+]([O-])/C=C/c1cc(Cl)c(/C=C/[N+](=O)[O-])cc1Cl`, the T/C runs as follows: under setting [12], 108 % of control and 121 % of control; under setting [13], 120 % of control and 122 % of control; under setting [14], 106 % of control and 123 % of control; (dose: 400.0 mg/kg/injection, schedule: Q01DX005 (ip), vehicle: Klucel (hydroxypropylcellulose) (HPC)) 97 % of control.
With `c1ccc(-c2cn3ccsc3n2)cc1`, the T/C by setting is: (dose: 25.0 mg/kg/injection, schedule: Q01DX009 (ip), vehicle: other) 109 % of control; (dose: 50.0 mg/kg/injection, schedule: Q01DX009 (ip), vehicle: other) 115 % of control; (dose: 100.0 mg/kg/injection, schedule: Q01DX009 (ip), vehicle: other) 115 % of control; (dose: 200.0 mg/kg/injection, schedule: Q01DX009 (ip), vehicle: other) 115 % of control.
On to `CC(C)=CCCC(C)(OC1OC(CO)C(O)C(O)C1O)C1CCC2(C)C1C(O)CC1C3(C)CCC(O)C(C)(C)C3C(OC3OC(CO)C(O)C(O)C3OC3OC(C)C(O)C(O)C3O)CC12C` (centres undefined) (tested in a mixture with another compound), for which the T/C was 101 % of control (dose: 18.75 mg/kg/injection, schedule: Q01DX009 (ip), vehicle: Klucel (hydroxypropylcellulose) (HPC)); 101 % of control (dose: 37.5 mg/kg/injection, schedule: Q01DX009 (ip), vehicle: Klucel (hydroxypropylcellulose) (HPC)); 100 % of control (dose: 75.0 mg/kg/injection, schedule: Q01DX009 (ip), vehicle: Klucel (hydroxypropylcellulose) (HPC)); 100 % of control (dose: 150.0 mg/kg/injection, schedule: Q01DX009 (ip), vehicle: Klucel (hydroxypropylcellulose) (HPC)).
As to `COc1cc(O)c2c(c1N)C(=O)c1ccccc1C2=O`, the T/C under setting [12] is 105 % of control, the T/C under setting [13] was 106 % of control and the T/C under setting [14] was 101 % of control.
In the case of `O=CC(O)C(O)C(O)COc1cc(CO)cc2c1C(=O)c1ccccc1C2=O` (centres undefined), the T/C (dose: 12.5 mg/kg/injection, schedule: Q01DX005 (ip), vehicle: Klucel (hydroxypropylcellulose) (HPC)) is 100 % of control; the T/C (dose: 25.0 mg/kg/injection, schedule: Q01DX005 (ip), vehicle: Klucel (hydroxypropylcellulose) (HPC)) is 107 % of control; the T/C under setting [12] is 106 % of control and 110 % of control; the T/C under setting [13] was 106 % of control and 107 % of control.
With `O=c1nc2n(CC(O)CN3CCCCC3)c3cc(Cl)ccc3nc-2c(=O)[nH]1` (centres undefined), the T/C (dose: 6.25 mg/kg/injection, schedule: Q01DX005 (ip), vehicle: saline) is 103 % of control and the T/C (dose: 12.5 mg/kg/injection, schedule: Q01DX005 (ip), vehicle: saline) was 106 % of control.
For `COc1ccc2c(c1)CC[n+]1c-2ccc2c1CCC2=O`, the T/C under setting [9] was 111 % of control.

The values above are taken from PubChem BioAssay AID330 (DTP/NCI, 2004).
